Assays:
[1] = test system: spastic ABH mice with EAE; experiment: Spasticity: resistance to hindlimb flexion against a strain gauge
ABH mice [2] = experiment: Temperature testing (hypothermia); assay type: in vivo, mouse; details: for Temperature loss: 10 mg·kg^−1 i.v.
Procedure: These recordings were assessed 20 min following administration of compounds. Results are expressed as mean ± SEM, and were analysed by Student's t‐test or a one‐way ANOVA with Bonferroni post hoc test using Sigma/StatV3/Sigmpaplot V9 or V11 software (Pryce et al., 2014).

ABH mice [3] = experiment: Open‐field activity monitoring (hypomotility); assay type: in vivo, mouse
Procedure: Motor activity was assessed using 27.9 × 27.9 cm open field activity monitor chambers and computer software (Med Associates Inc, St. Albans, VT, USA.). This was typically performed in a darkened room. Recordings were initiated once the mouse entered the chamber and continued for 5 min. These chambers, allowing four simultaneous recordings of individual mice and were fitted with infrared beams that could detect movement in the X, Y planes. The total distance travelled (cm) was recorded. Results are expressed as mean ± SEM. These were analysed by Student's paired t‐test or a one‐way ANOVA with Bonferroni post hoc test, using SigmaStat V3/Sigmaplot V9 or V11 software (Systat Ltd Hounslow, UK. Al‐Izki et al., 2012).

rat mesenteric artery = experiment: Methoxamine‐evoked contraction of rat mesenteric artery; assay type: cell-based; details: 50 nM blocker pretreatment
Procedure: Vessels were equilibrated and set to a basal tension of 2 to 2.5 mN. The integrity of the endothelium was assessed by pre‐contracting the vessel with 10 μM methoxamine (an α1‐adrenoceptor agonist), followed by relaxation with 10 μM carbachol (a muscarinic acetylcholine receptor agonist); vessels showing relaxations of greater than 90% were designated as endothelium‐intact. When the endothelium was not required, it was removed by rubbing the intima with a human hair; carbachol‐induced relaxation of less than 10% indicated successful removal. After the test for endothelial integrity, vessels were left for 30 min and then pre‐contracted with 10 μM methoxamine. This was followed by construction of a cumulative concentration–relaxation curve to VSN16R (10 nM–1 μM). […] Most experiments were performed in matched vessels; effects of blockers or endothelial removal were compared with the control responses obtained in separate vessels of the same rats. All relaxant responses are expressed as percentage relaxation of the tone induced by methoxamine. Values are given as mean ± SEM. Statistical comparisons of concentration‐dependent responses were made by two‐way ANOVA using Prism 4 (GraphPad Software, Inc, San Diego, CA, USA).

[4] = i.p., 40 mg·kg^−1 BMS‐204352, 20 mg·kg^−1 NS‐1619, 10 mg·kg^−1 NS‐11021

COc1ccc(Cl)cc1[C@]1(F)C(=O)Nc2cc(C(F)(F)F)ccc21 [BMS‐204352, reference compound]
Inhibition of spasticity [1, 4]: significantly inhibit spasticity
Sedation [1, 4]: without causing sedation

N#Cc1cc2[nH]c(=O)c(=O)[nH]c2cc1[N+](=O)[O-] [CNQX, reference compound]
Inhibitory response on repeated dosing ([1]; repeated 25 mg·kg^−1 s.c.): inhibitory responses that diminished over time

CCCCCCC(C)(C)c1cc(O)c2c(c1)OC(C)(C)[C@@H]1CC=C(C(=O)O)C[C@@H]21 [CT3, 1′, 1′‐dimethylheptyl‐M8‐tetrahydrocannabinol‐11‐oic acid]
Temperature loss (ABH mice [2]; 20 min, spastic animals): 2.3 ± 0.4 °C
Temperature loss (ABH mice [2]; healthy mice): 0.0 ± 0.1 °C

O=c1[nH]c2cc(C(F)(F)F)ccc2n1-c1cc(C(F)(F)F)ccc1O [NS‐1619, reference compound]
Inhibition of spasticity [1, 4]: significantly inhibit spasticity
Sedation [1, 4]: without causing sedation

FC(F)(F)c1cc(NC(=S)Nc2ccc(Br)cc2-c2nn[nH]n2)cc(C(F)(F)F)c1 [NS‐11021, reference compound]
Inhibition of spasticity [1, 4]: significantly inhibit spasticity
Sedation [1, 4]: without causing sedation

Cc1c(C(=O)c2cccc3ccccc23)c2cccc3c2n1[C@H](CN1CCOCC1)CO3 [R(+)WIN55‐212]
Hypothermia (ABH mice [2]; 1 mg·kg^−1 i.v., 20 min after administration): significant sedative effects
Hypomotility in open field (ABH mice [3]; 1 mg·kg^−1 i.v., 30 min after administration): significant sedative effects

NCC(CC(=O)O)c1ccc(Cl)cc1 (stereo not drawn) [baclofen, reference compound]
Inhibition of spasticity ([1]; 5 mg·kg^−1 i.v.): comparable inhibition of spasticity
Inhibitory response on repeated dosing ([1]; repeated 5 mg·kg^−1 p.o.): inhibitory responses that diminished over time
Sedation (hypomotility, hypothermia) (ABH mice [3]; 5 mg·kg^−1 i.v.): significant sedation

CC(C)(O)[C@H]1O[C@H]2CC[C@@]3(C)[C@@](O)(CC[C@H]4Cc5c([nH]c6ccccc56)[C@@]43C)C2=CC1=O [paxilline, reference compound]
Effect on baseline level of spasticity ([1]; 1 mg·kg^−1 i.p.): did not influence the baseline level of spasticity
Effect of pretreatment on the action of VSN16R ([1]; 1 mg·kg^−1 i.p. before 5 mg·kg^−1 p.o. VSN16R): completely inhibit the action of VSN16R

Apamin: KCa2.2/2.3 (KCNN2/KCNN3) channel antagonist (CNCKAPETALCARRCQQHG)
Effect of the blocker on VSN16R vasorelaxation (rat mesenteric artery): small inhibitory effect

charybdotoxin
Effect of the blocker on VSN16R vasorelaxation (rat mesenteric artery): significantly inhibited

Source: publication PMC5522996, “Big conductance calcium‐activated potassium channel openers control spasticity without sedation” (British Journal of Pharmacology, 2017)
